Test results: PubChem BioAssay (NCI)
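Assay format: 96-well plates, 48-hour exposure. GI50 marks 50% less growth. TGI denotes the concentration required for complete inhibition of growth.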

What was measured:
Assay in all cases: NCI-60 cell line screen, 48 h
LOX IMVI melanoma = system: LOX IMVI melanoma
SW-620 colon = system: SW-620 colon
OVCAR-5 ovarian = system: OVCAR-5 ovarian
SNB-75 CNS = system: SNB-75 CNS
CAKI-1 renal = system: CAKI-1 renal
IGROV1 ovarian = system: IGROV1 ovarian
SNB-19 CNS = system: SNB-19 CNS
MALME-3M melanoma = system: MALME-3M melanoma
MDA-MB-435 = system: MDA-MB-435
HCT-116 colon = system: HCT-116 colon
CCRF-CEM leukemia = system: CCRF-CEM leukemia
HCT-15 colon = system: HCT-15 colon
PC-3 prostate = system: PC-3 prostate
A498 renal = system: A498 renal
UACC-257 melanoma = system: UACC-257 melanoma
EKVX NSCLC = system: EKVX NSCLC
NCI-H522 lung = system: NCI-H522 lung
786-0 renal = system: 786-0 renal
HT29 colon = system: HT29 colon
OVCAR-4 ovarian = system: OVCAR-4 ovarian
MOLT-4 leukemia = system: MOLT-4 leukemia
DU-145 prostate = system: DU-145 prostate
KM12 colon = system: KM12 colon
SF-268 CNS = system: SF-268 CNS
ACHN renal = system: ACHN renal
K-562 leukemia = system: K-562 leukemia
UO-31 renal = system: UO-31 renal
HL-60(TB) leukemia = system: HL-60(TB) leukemia
HOP-62 NSCLC = system: HOP-62 NSCLC
U251 CNS = system: U251 CNS
HOP-92 NSCLC = system: HOP-92 NSCLC
RXF 393 renal = system: RXF 393 renal
NCI-H23 lung = system: NCI-H23 lung
SK-MEL-5 melanoma = system: SK-MEL-5 melanoma
A549 NSCLC = system: A549 NSCLC
COLO 205 colon = system: COLO 205 colon
OVCAR-8 ovarian = system: OVCAR-8 ovarian
NCI-H226 lung = system: NCI-H226 lung
NCI/ADR-RES ovarian = system: NCI/ADR-RES ovarian
HS 578T breast = system: HS 578T breast
TK-10 renal = system: TK-10 renal
M14 melanoma = system: M14 melanoma
MCF7 breast = system: MCF7 breast
RPMI-8226 leukemia = system: RPMI-8226 leukemia
SN12C renal = system: SN12C renal
SF-295 CNS = system: SF-295 CNS
OVCAR-3 ovarian = system: OVCAR-3 ovarian
SK-MEL-28 melanoma = system: SK-MEL-28 melanoma
SF-539 CNS = system: SF-539 CNS
T-47D breast = system: T-47D breast
NCI-H460 lung = system: NCI-H460 lung
UACC-62 melanoma = system: UACC-62 melanoma
HCC-2998 colon = system: HCC-2998 colon
SK-MEL-2 melanoma = system: SK-MEL-2 melanoma
SK-OV-3 ovarian = system: SK-OV-3 ovarian
MDA-MB-231 breast = system: MDA-MB-231 breast
BT-549 breast = system: BT-549 breast

CCCN1CCC=C(c2ccc(Nc3nc(Nc4ccccc4C(N)=O)c4cc[nH]c4n3)c(C)c2)C1
GI50 (LOX IMVI melanoma): 1.77 µM
TGI (LOX IMVI melanoma): > 25 µM
GI50 (SW-620 colon): 1.48 µM
TGI (SW-620 colon): > 25 µM
GI50 (OVCAR-5 ovarian): 4.01 µM
TGI (OVCAR-5 ovarian): > 25 µM
GI50 (SNB-75 CNS): > 25 µM
TGI (SNB-75 CNS): > 25 µM
GI50 (CAKI-1 renal): 9.49 µM
TGI (CAKI-1 renal): > 25 µM
GI50 (IGROV1 ovarian): 8.29 µM
TGI (IGROV1 ovarian): > 25 µM
GI50 (SNB-19 CNS): > 25 µM
TGI (SNB-19 CNS): > 25 µM
GI50 (MALME-3M melanoma): 5.35 µM
TGI (MALME-3M melanoma): > 25 µM
GI50 (MDA-MB-435): 3.15 µM
TGI (MDA-MB-435): > 25 µM
GI50 (HCT-116 colon): 2.56 µM
TGI (HCT-116 colon): > 25 µM
GI50 (CCRF-CEM leukemia): 3.32 µM
TGI (CCRF-CEM leukemia): > 25 µM
GI50 (HCT-15 colon): 8.98 µM
TGI (HCT-15 colon): > 25 µM
GI50 (PC-3 prostate): > 23.4 µM
TGI (PC-3 prostate): > 25 µM
GI50 (A498 renal): 11.1 µM
TGI (A498 renal): > 25 µM
GI50 (UACC-257 melanoma): 2.65 µM
TGI (UACC-257 melanoma): > 25 µM
GI50 (EKVX NSCLC): > 17.8 µM
TGI (EKVX NSCLC): > 25 µM
GI50 (NCI-H522 lung): 8.66 µM
TGI (NCI-H522 lung): > 25 µM
GI50 (786-0 renal): 17.3 µM
TGI (786-0 renal): > 25 µM
GI50 (HT29 colon): 0.407 µM
TGI (HT29 colon): > 13.2 µM
GI50 (OVCAR-4 ovarian): > 14.6 µM
TGI (OVCAR-4 ovarian): > 25 µM
GI50 (MOLT-4 leukemia): 7.79 µM
TGI (MOLT-4 leukemia): > 21 µM
GI50 (DU-145 prostate): 3.76 µM
TGI (DU-145 prostate): > 25 µM
GI50 (KM12 colon): 9.48 µM
TGI (KM12 colon): > 25 µM
GI50 (SF-268 CNS): > 25 µM
TGI (SF-268 CNS): > 25 µM
GI50 (ACHN renal): 15.4 µM
TGI (ACHN renal): > 25 µM
GI50 (K-562 leukemia): 4.42 µM
TGI (K-562 leukemia): > 22.8 µM
GI50 (UO-31 renal): 2.98 µM
TGI (UO-31 renal): > 25 µM
GI50 (HL-60(TB) leukemia): 0.387 µM
TGI (HL-60(TB) leukemia): 6.84 µM
GI50 (HOP-62 NSCLC): > 20 µM
TGI (HOP-62 NSCLC): > 25 µM
GI50 (U251 CNS): 9.78 µM
TGI (U251 CNS): > 25 µM
GI50 (HOP-92 NSCLC): 0.158 µM
TGI (HOP-92 NSCLC): 2.04 µM
GI50 (RXF 393 renal): 11 µM
TGI (RXF 393 renal): > 25 µM
GI50 (NCI-H23 lung): 8.16 µM
TGI (NCI-H23 lung): > 25 µM
GI50 (SK-MEL-5 melanoma): 13.2 µM
TGI (SK-MEL-5 melanoma): > 25 µM
GI50 (A549 NSCLC): 1.89 µM
TGI (A549 NSCLC): > 25 µM
GI50 (COLO 205 colon): 2.37 µM
TGI (COLO 205 colon): 8.68 µM
GI50 (OVCAR-8 ovarian): 10.1 µM
TGI (OVCAR-8 ovarian): > 25 µM
GI50 (NCI-H226 lung): > 17.7 µM
TGI (NCI-H226 lung): > 25 µM
GI50 (NCI/ADR-RES ovarian): > 22.4 µM
TGI (NCI/ADR-RES ovarian): > 25 µM
GI50 (HS 578T breast): > 17.8 µM
TGI (HS 578T breast): > 25 µM
GI50 (TK-10 renal): 4.61 µM
TGI (TK-10 renal): 24.4 µM
GI50 (M14 melanoma): 4.77 µM
TGI (M14 melanoma): > 25 µM
GI50 (MCF7 breast): 0.289 µM
TGI (MCF7 breast): > 25 µM
GI50 (RPMI-8226 leukemia): 5.53 µM
TGI (RPMI-8226 leukemia): > 21.7 µM
GI50 (SN12C renal): > 21.1 µM
TGI (SN12C renal): > 25 µM
GI50 (SF-295 CNS): > 25 µM
TGI (SF-295 CNS): > 25 µM
GI50 (OVCAR-3 ovarian): 17.9 µM
TGI (OVCAR-3 ovarian): > 25 µM
GI50 (SK-MEL-28 melanoma): > 23.8 µM
TGI (SK-MEL-28 melanoma): > 25 µM
GI50 (SF-539 CNS): 17.9 µM
TGI (SF-539 CNS): > 25 µM
GI50 (T-47D breast): > 18.3 µM
TGI (T-47D breast): > 25 µM
GI50 (NCI-H460 lung): 2.46 µM
TGI (NCI-H460 lung): > 25 µM
GI50 (UACC-62 melanoma): 14.4 µM
TGI (UACC-62 melanoma): > 25 µM
GI50 (HCC-2998 colon): 5.7 µM
TGI (HCC-2998 colon): > 25 µM
GI50 (SK-MEL-2 melanoma): 2.51 µM
TGI (SK-MEL-2 melanoma): 15.4 µM
GI50 (SK-OV-3 ovarian): 9.68 µM
TGI (SK-OV-3 ovarian): > 25 µM
GI50 (MDA-MB-231 breast): > 16.6 µM
TGI (MDA-MB-231 breast): > 25 µM
GI50 (BT-549 breast): 17.2 µM
TGI (BT-549 breast): > 25 µM
